Test results reported in patent US8163724B2, “Glucocorticosteroids, processes for their preparation, pharmaceutical compositions containing them and their use in therapy” (AstraZeneca AB, priority 2007, dated 2012).
pIC50: −log10 of the molar value.

What follows are compounds tested against T1, recombinant human GR (Homo sapiens, UniProt P04150) (assay: Human Glucocorticoid Receptor (GR) Assay (fluorescence polarization, Panvera/Invitrogen kit)). Details: fluorescence polarization; GS Red tracer; 2 hours at room temperature; 100% control 10 μM Dexamethasone; read-out: Inhibition of GR binding, IC50.
T1 construct: purchased Panvera/Invitrogen P2812 (kit P2893)
T1 sequence (P04150 1-777): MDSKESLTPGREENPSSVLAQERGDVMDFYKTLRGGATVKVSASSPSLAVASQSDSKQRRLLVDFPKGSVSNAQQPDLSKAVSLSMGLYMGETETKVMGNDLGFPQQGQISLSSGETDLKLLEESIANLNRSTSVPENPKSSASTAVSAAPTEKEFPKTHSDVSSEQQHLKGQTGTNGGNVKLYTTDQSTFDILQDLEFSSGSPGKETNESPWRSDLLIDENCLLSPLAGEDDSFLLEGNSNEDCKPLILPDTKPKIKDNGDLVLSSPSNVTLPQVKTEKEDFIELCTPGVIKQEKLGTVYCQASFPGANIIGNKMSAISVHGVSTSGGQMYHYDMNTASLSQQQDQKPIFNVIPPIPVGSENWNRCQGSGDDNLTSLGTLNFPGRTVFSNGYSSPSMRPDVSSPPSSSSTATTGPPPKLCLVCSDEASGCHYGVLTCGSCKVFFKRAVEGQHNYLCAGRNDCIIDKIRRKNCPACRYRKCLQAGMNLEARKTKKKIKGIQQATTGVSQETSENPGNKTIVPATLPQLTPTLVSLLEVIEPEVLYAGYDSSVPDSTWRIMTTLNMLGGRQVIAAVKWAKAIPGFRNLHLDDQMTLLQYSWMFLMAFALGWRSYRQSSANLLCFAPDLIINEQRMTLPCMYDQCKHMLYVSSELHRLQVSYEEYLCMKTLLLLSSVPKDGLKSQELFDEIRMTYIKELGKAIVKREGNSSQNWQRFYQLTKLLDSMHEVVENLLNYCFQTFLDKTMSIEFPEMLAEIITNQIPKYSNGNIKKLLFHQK
Type: binding
Outline: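 Fluorescence polarization competition with recombinant GR and GS Red fluorescent ligand plus stabilizing peptide and DTT in potassium phosphate/sodium molybdate/EDTA buffer with DMSO. Incubated 2 hours at room temperature in the dark; 0% control DMSO, 100% control 10 μM dexamethasone.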

Row | Structure (SMILES) | pIC50
1 | COCC(=O)O[C@]1(C(=O)SCF)CC[C@H]2[C@@H]3CCC4=Cc5c(cnn5-c5ccc(F)cc5)C[C@]4(C)[C@H]3[C@@H](O)C[C@@]21C [Example 34, (1R,3aS,3bS,10aR,10bS,11S,12aS)-1-{[(Fluoromethyl)thio]carbonyl}-7-(4-fluoro-phenyl)-11-hydroxy-10a,12a-dimethyl-1,2,3,3a,3b,4,5,7,10,10a,10b,11,12,12a-tetradecahydrocyclopenta[5,6]naphtho[1,2-f]indazol-1-yl methoxyacetate] | 8.77
2 | C[C@]12Cc3cnn(-c4ccc(F)cc4)c3C=C1CC[C@@H]1[C@@H]2[C@@H](O)C[C@@]2(C)[C@H]1CC[C@]2(OC(=O)C1CC1)C(=O)SCC#N [Example 35, (1R,3aS,3bS,10aR,10bS,11S,12aS)-1-{[(Cyanomethyl)thio]carbonyl}-7-(4-fluoro-Phenyl)-11-hydroxy-10a,12a-dimethyl-1,2,3,3a,3b,4,5,7,10,10a,10b,11,12,12a-tetradecahydrocyclopenta[5,6]naphtho[1,2-f]indazol-1-yl cyclopropanecarboxylate] | 8.30
3 | C[C@]12Cc3cnn(-c4ccc(F)cc4)c3C=C1CC[C@@H]1[C@@H]2[C@@H](O)C[C@@]2(C)[C@H]1CC[C@]2(OC(=O)C1CC1)C(=O)SCCO [Example 36, (1R,3aS,3bS,10aR,10bS,11S,12aS)-7-(4-Fluorophenyl)-11-hydroxy-1-{[(2-hydroxy-ethyl)thio]carbonyl}-10a,12a-dimethyl-1,2,3,3a,3b,4,5,7,10,10a,10b,11,12,12a-tetradecahydrocyclopenta[5,6]naphtho[1,2-f]indazol-1-yl cyclopropanecarboxylate] | 8.60
4 | C[C@]12Cc3cnn(-c4ccc(F)cc4)c3C=C1CC[C@@H]1[C@@H]2[C@@H](O)C[C@@]2(C)[C@H]1CC[C@]2(OC(=O)C1CC1)C(=O)SCC#CCO [Example 37, (1R,3aS,3bS,10aR,10bS,11S,12aS)-7-(4-Fluorophenyl)-11-hydroxy-{[(4-hydroxybut-2-yn-1-yl)thio]carbonyl}-10a,12a-dimethyl-1,2,3,3a,3b,4,5,7,10,11a,10b,11,12,12a-tetradecahydrocyclopenta[5,6]naphtho[1,2-f]indazol-1-yl cyclopropanecarboxylate] | 8.24
5 | C[C@]12Cc3cnn(-c4ccc(F)cc4)c3C=C1CC[C@@H]1[C@@H]2[C@@H](O)C[C@@]2(C)[C@H]1CC[C@]2(OC(=O)C1CC1)C(=O)SCF [Example 38, (1R,3aS,3bS,10aR,10bS,11S,12aS)-1-{[(Fluoromethyl)thio]carbonyl}-7-(4-fluoro-phenyl)-11-hydroxy-10a,12a-dimethyl-1,2,3,3a,3b,4,5,7,10,10a,10b,11,12,12a-tetradecahydrocyclopenta[5,6]naphtho[1,2-f]indazol-1-yl cyclopropanecarboxylate] | 8.24
6 | C[C@]12Cc3cnn(-c4ccc(F)cc4)c3C=C1CC[C@@H]1[C@@H]2[C@@H](O)C[C@@]2(C)[C@H]1CC[C@]2(OC(=O)c1nccs1)C(=O)SCC#N [Example 39, (1R,3aS,3bS,10aR,10bS,11S,12aS)-1-{[(Cyanomethyl)thio]carbonyl}-7-(4-fluorophenyl)-11-hydroxy-10a,12a-dimethyl-1,2,3,3a,3b,4,5,7,10,10a,10b,11,12,12a-tetradecahydropcyclopenta[5,6]naphtho[1,2-f]indazol-1-yl 1,3-thiazole-2-carboxylate] | 8.48
7 | C[C@]12Cc3cnn(-c4ccc(F)cc4)c3C=C1CC[C@@H]1[C@@H]2[C@@H](O)C[C@@]2(C)[C@H]1CC[C@]2(OC(=O)c1nccs1)C(=O)SCCO [Example 40, (1R,3aS,3bS,10aR,10bS,11S,12aS)-7-(4-Fluorophenyl)-11-hydroxy-1-{[(2-hydroxy-ethyl)thio]carbonyl}-10a,12a-dimethyl-1,2,3,3a,3b,4,5,7,10,10a,10b,11,12,12a-tetradecahydrocyclopenta[5,6]naphtho[1,2-f]indazol-1-yl 1,3-thiazole-2-carboxylate] | 8.54
8 | C[C@]12Cc3cnn(-c4ccc(F)cc4)c3C=C1CC[C@@H]1[C@@H]2[C@@H](O)C[C@@]2(C)[C@H]1CC[C@]2(OC(=O)c1nccs1)C(=O)SCC#CCO [Example 41, (1R,3aS,3bS,10aR,10bS,11S,12aS)-7-(4-Fluorophenyl)-11-hydroxy-{[(4-hydroxy-but-2-yn-1-yl)thio]carbonyl}-10a,12a-dimethyl-1,2,3,3a,3b,4,5,7,10,10a,10b,11,12,12a-tetradecahydrocyclopenta[5,6]naphtho[1,2-f]indazol-1-yl 1,3-thiazole-2-carboxylate] | 8.39
9 | C[C@]12Cc3cnn(-c4ccc(F)cc4)c3C=C1CC[C@@H]1[C@@H]2[C@@H](O)C[C@@]2(C)[C@H]1CC[C@]2(OC(=O)c1nccs1)C(=O)SCF [Example 42, (1R,3aS,3bS,10aR,10bS,11S,12aS)-1-{[(Fluoromethyl)thio]carbonyl}-7-(4-fluoro-phenyl)-11-hydroxy-10a,12a-dimethyl-1,2,3,3a,3b,4,5,7,10,10a,10b,11,12,12a-tetradecahydrocyclopenta[5,6]naphtho[1,2-f]indazol-1-yl 1,3-thiazole-2-carboxylate] | 8.49
10 | C[C@]12Cc3cnn(-c4ccc(F)cc4)c3C=C1CC[C@@H]1[C@@H]2[C@@H](O)C[C@@]2(C)[C@H]1CC[C@]2(OC(=O)c1cocn1)C(=O)SCC#N [Example 43, (1R,3aS,3bS,10aR,10bS,11S,12aS)-1-{[(Cyanomethyl)thio]carbonyl}-7-(4-fluoro-phenyl)-11-hydroxy-10a,12a-dimethyl-1,2,3,3a,3b,4,5,7,10,10a,10b,11,12,12a-tetradecahydrocyclopenta[5,6]naphtho[1,2-f]indazol-1-yl 1,3-oxazole-4-carboxylate] | 8.57
11 | C[C@]12Cc3cnn(-c4ccc(F)cc4)c3C=C1CC[C@@H]1[C@@H]2[C@@H](O)C[C@@]2(C)[C@H]1CC[C@]2(OC(=O)c1cocn1)C(=O)SCCO [Example 44, (1R,3aS,3bS,10aR,10bS,11S,12aS)-7-(4-Fluorophenyl)-11-hydroxy-1-{[(2-hydroxy-ethyl)thio]carbonyl}-10a,12a-dimethyl-1,2,3,3a,3b,4,5,7,10,10a,10b,11,12,12a-tetradecahydrocyclopenta[5,6]naphtho[1,2-f]indazol-1-yl 1,3-oxazole-4-carboxylate] | 8.54
12 | C[C@]12Cc3cnn(-c4ccc(F)cc4)c3C=C1CC[C@@H]1[C@@H]2[C@@H](O)C[C@@]2(C)[C@H]1CC[C@]2(OC(=O)c1cocn1)C(=O)SCF [Example 45, (1R,3aS,3bS,10aR,10bS,11S,12aS)-1-{[(Fluoromethyl)thio]carbonyl}-7-(4-fluoro-phenyl)-11-hydroxy-10a,12a-dimethyl-1,2,3,3a,3b,4,5,7,10,10a,10b,11,12,12a-tetradecahydrocyclopenta[5,6]naphtho[1,2-f]indazol-1-yl 1,3-oxazole-4-carboxylate] | 8.47
